Assay results as given in patent US20080015202A1, “Thiazole Derivatives Having Vap-1 Inhibitory Activity” (Astellas Pharma Inc., priority 2004, published 2008).
pIC50: −log10 of the molar value. Structures can show the parent of a compound that is named as a salt.

Columns and labels:
[1] = biological target: T1, VAP-1 enzyme (SSAO) in human plasma (Homo sapiens, UniProt Q16853); experiment: Inhibitory effect on VAP-1 enzyme (SSAO) activity in human plasma, radiochemical-enzyme assay with 14C-benzylamine; type: biochemical; conditions: human plasma enzyme suspension; 30 min pre-incubation at room temperature; 14C-benzylamine 2×10^−5 mol/l, 37° C., 1 hour
T1 construct: The enzyme suspension prepared from blood plasma was pre-incubated with one of the present compounds; from tissue; host or cells: human blood plasma
T1 sequence (Q16853 27-763 limits assumed): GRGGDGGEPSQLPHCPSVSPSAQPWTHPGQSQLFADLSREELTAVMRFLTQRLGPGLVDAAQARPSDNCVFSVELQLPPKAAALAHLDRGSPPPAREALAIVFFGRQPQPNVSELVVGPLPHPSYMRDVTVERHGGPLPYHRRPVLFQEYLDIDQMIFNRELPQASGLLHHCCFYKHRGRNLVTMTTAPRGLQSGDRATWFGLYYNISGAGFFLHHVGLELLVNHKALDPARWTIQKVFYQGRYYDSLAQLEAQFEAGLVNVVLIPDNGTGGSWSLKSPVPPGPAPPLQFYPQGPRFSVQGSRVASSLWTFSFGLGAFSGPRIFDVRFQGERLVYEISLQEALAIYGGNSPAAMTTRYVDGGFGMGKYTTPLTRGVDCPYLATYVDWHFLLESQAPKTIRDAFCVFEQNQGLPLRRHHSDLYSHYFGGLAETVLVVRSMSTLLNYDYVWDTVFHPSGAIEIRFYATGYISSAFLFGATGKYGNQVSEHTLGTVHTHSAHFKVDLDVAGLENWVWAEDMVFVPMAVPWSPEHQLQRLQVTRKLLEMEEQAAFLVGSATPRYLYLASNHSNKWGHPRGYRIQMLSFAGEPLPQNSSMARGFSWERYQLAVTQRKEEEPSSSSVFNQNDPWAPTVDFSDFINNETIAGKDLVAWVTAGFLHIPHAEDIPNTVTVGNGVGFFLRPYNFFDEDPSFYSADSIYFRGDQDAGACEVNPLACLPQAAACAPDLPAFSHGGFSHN
Method: Inhibitory Effect of the Present Compounds on VAP-1 Enzyme (SSAO) Activity in Human Plasma.
VAP-1 enzyme (SSAO) activity in human plasma was determined by a radiochemical-enzyme assay using ^14C-benzylamine as an artificial substrate. The enzyme suspension prepared from blood plasma was pre-incubated with one of the present compounds or control compound (Reference Example) in 96-well microplate at room temperature for 30 minutes. The enzyme suspension was then incubated with ^14C-benzylamine (2×10^−5 mol/l final concentration) in a final volume of 50 μl at 37° C. for 1 hour. The enzyme reaction was terminated by adding 2 mol/l (50 μl) citric acid. The oxidized products were directly extracted into a 200 μl toluene scintillator, and its radioactivity was measured by a scintillation spectrometer. Inhibition activity was expressed as IC50 (μmol/l) value.

Compound | melting point | pIC50 [1]
CC(=O)Nc1nc(CCc2ccc(CC(=O)O)s2)cs1 [Production Example 5, 2-{5-[2-(2-acetylaminothiazol-4-yl)ethyl]-2-thienyl}acetic acid] | 172 to 173.5 °C | –
CC(=O)Nc1nc(CCc2ccc(CN3CCN(C(=O)OC(C)(C)C)CC3)cc2)cs1 [Production Example 11, tert-butyl 4-{4-[2-(2-acetylaminothiazol-4-yl)ethyl]benzyl}-1-piperazinecarboxylate] | 140 to 141 °C | –
CC(=O)Nc1nc(CCc2ccc(CN3CCNCC3)cc2)cs1 [Production Example 12, N-(4-{2-[4-(1-piperazinylmethyl)phenyl]ethyl}thiazol-2-yl)acetamide] | 164 to 165.5 °C | –
CC(=O)Nc1nc(CCc2ccc(Cc3c[nH]c(N)n3)cc2)cs1 [Production Example 17, N-[4-(2-{4-[(2-amino-1H-imidazol-4-yl)methyl]phenyl}ethyl)thiazol-2-yl]acetamide] | – | 8.28

Now from value to compound:

melting point | pIC50 [1] | Compound
121.5 to 123 °C | – | CC(=O)Nc1nc(CCc2ccc(CCNC(=N)N)s2)cs1 [Production Example 1, N-(4-{2-[5-(2-{[amino(imino)methyl]amino}ethyl)-2-thienyl]ethyl}thiazol-2-yl)acetamide]
– | 7.92 | CC(=O)Nc1nc(CCc2ccc(CNC(=N)N)s2)cs1 [Production Example 3, N-(4-{2-[5-({[amino(imino)methyl]amino}methyl)-2-thienyl]ethyl}thiazol-2-yl)acetamide hydrochloride]
188.5 to 190 °C | 8.62 | CC(=O)Nc1nc(CCc2ccc(CC(=O)NC(=N)N)s2)cs1 [Production Example 4, 2-{5-[2-(2-acetylaminothiazol-4-yl)ethyl]-2-thienyl}-N-[amino(imino)methyl]acetamide]
